The values below come from patent US8778974B2, “Trisubstituted 1,2,4 triazoles” (Janssen Pharmaceutica NV, priority 2008, dated 2014).

Each structure is given as a SMILES string.

For series [1], the target named is T1, hα7-wt nAChR-expressing cells (Homo sapiens, UniProt P36544).
T1 construct: expressed in transfected cells; host or cells: hα7-wt nAChR-expressing cells
Kind of series: Ca2+ flux imaging (FDSS) (Protocol B), PAM activity with choline 100 μM. Type of series: cell-based. The following applies: according to Ex. D.1b; read-out: % Efficacy. Here is the method: Ca^2+ Flux Imaging (FDSS) (Protocol B)
• a) Assay buffer • Hanks buffered saline solution (HBSS, Invitrogen, Belgium), supplemented with 10 mM HEPES (Invitrogen, Belgium), CaCl2 to a final concentration of 5 mM, 0.1% Bovine serum albumin (Sigma-Aldrich NV, Belgium). • b) Calcium-sensitive dye—Fluo-4AM • Fluo-4AM (Molecular Probes, USA) was dissolved in DMSO containing 10% Pluronic acid (Molecular Probes, USA) to give a stock solution which was diluted in assay buffer supplemented with 5 mM probenicid (Sigma, Al-drich NV, Belgium) to give a final concentration of 2 μM. • c) 384-well plates • Black 384 well plate black/clear plates, PDL pre-coated (Corning, Incorporated, USA) • d) Calcium flux measurement • A Functional drug screening system (FDSS, Hamamatsu) was used to measure intracellular free-calcium flux signals. Method
Monolayers of hα7-wt nAChR-expressing cells were grown in multi-well plates, in particular black-sided, transparent bottomed 384 well plates coated with poly-D-lysine for 24 hours prior to loading with a fluorescent calcium indicator, in a particular embodiment loading with fluo-4AM for up to 120 minutes.
PAM activity was detected in real time by applying the compounds to be tested to the loaded cells along with a α7 nicotinic receptor agonist during constant monitoring of cellular fluorescence in a FDSS. Compounds giving peak fluorescent responses greater than the response due to agonist alone, were considered to be α7 nAChR PAM's. In a particular embodiment, the α7 nicotinic receptor agonist was choline, a more particular embodiment choline applied at a sub-maximal concentration of 100 μM. In a further setting of the present invention the compounds to be tested were applied prior to the α7 nicotinic receptor agonist, in a particular embodiment up to 10 minutes prior to the agonist.
A control response to choline was calculated on each plate from the difference in peak in fluorescence in wells receiving either choline or assay buffer alone. Compounds of the present invention were tested at a concentration range from 0.01 μM to 30 μM. Compounds were considered to have an interesting activity when they potentiated the choline signal at least with 500% when tested at a concentration of 30 μM (the efficacy of 100 μM choline was defined as 100% in the absence of a PAM). The compounds also have a potentiating effect on the response to choline when measured by whole-cell patch clamp electrophysiology in GH4Cl cells stably over-expressing the human wild-type α7 receptor.
For orientation: A change in cytosolic calcium serves as a functional read-out for many receptors and channels.

Series [2] concerns the target T2, hα7-wt nAChR-expressing GH4Cl cells (Homo sapiens, UniProt P36544).
T2 construct: expressed in transfected cells
Kind of series: Patch-clamp current recording (whole-cell), potentiation of choline 1 mM response, PAM type. Type of series: cell-based. The following applies: according to Ex. D.2; "<5" = no top plateau reached at maximal concentration; read-out: Potency (pEC50) (converted). In outline: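 PAM type assigned qualitatively from current size and desensitization rate/extent when compound is applied simultaneously with 1 mM choline. Recordings: hα7-wt nAChR GH4Cl cells, whole-cell patch clamp, holding −70 mV, series resistance <15 MΩ with ≥60% compensation, pH 7.3 HEPES solutions, solution switching <100 ms.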
A general note: The patch-clamp technique gives a direct electrical read-out from membranes.

T1 sequence (P36544 23-502): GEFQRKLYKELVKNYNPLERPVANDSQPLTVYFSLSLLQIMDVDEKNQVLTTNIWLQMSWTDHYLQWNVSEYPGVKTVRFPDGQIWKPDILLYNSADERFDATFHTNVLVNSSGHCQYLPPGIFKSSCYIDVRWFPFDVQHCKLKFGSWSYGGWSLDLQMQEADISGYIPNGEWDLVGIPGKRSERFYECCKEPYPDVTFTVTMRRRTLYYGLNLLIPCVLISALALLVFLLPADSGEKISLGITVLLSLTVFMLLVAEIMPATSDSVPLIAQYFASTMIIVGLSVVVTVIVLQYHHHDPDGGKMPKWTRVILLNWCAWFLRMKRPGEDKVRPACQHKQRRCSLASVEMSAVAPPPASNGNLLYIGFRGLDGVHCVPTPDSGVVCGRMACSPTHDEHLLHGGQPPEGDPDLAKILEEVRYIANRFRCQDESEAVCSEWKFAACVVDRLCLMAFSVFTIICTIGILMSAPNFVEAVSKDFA
T2 sequence (P36544 23-502): as above

The compound `COc1cc(Nc2nc(CC(=O)NC3CCC3)n(-c3cc(C)nc(C)c3)n2)cc(C(F)(F)F)c1` [E244] had a melting point of 278.4 °C. Further, in series [1], the Emax was 701%. The EC50 in series [2] is 31.6 nM.

`CNC(=O)Cc1nc(Nc2cc(F)cc(Cl)c2)nn1-c1cc(C)nc(C)c1` [E245] came in with a melting point of 280.7 °C. In series [1], the Emax came out at 614%. Besides, the EC50 in series [2] is 398 nM.

`CCNC(=O)Cc1nc(Nc2cc(F)cc(Cl)c2)nn1-c1cc(C)nc(C)c1` [E246]: the melting point is 290.2 °C. The Emax in series [1] was determined as 494%. In addition, the EC50 in series [2] is 275 nM.

With `Cc1cc(-n2nc(Nc3cc(F)cc(Cl)c3)nc2CC(=O)NC2CC2)cc(C)n1` [E247], the melting point amounted to 289.3 °C. Besides, the Emax in series [1] was 663%. For the same compound, in series [2], the EC50 was 214 nM.

Take `Cc1cc(-n2nc(Nc3cc(F)cc(Cl)c3)nc2CC(=O)NC2CCC2)cc(C)n1` [E248]: the melting point is 287 °C. For the same compound, the Emax in series [1] was 421%. The EC50 in series [2] was 107 nM.

`CCNC(=O)Cc1nc(Nc2ccc(F)c(Cl)c2)nn1-c1cc(C)nc(C)c1` [E250] registered a melting point of 283.2 °C. Moreover, the Emax in series [1] was determined as 546%. Also, the EC50 in series [2] is 105 nM.

As for `CNC(=O)Cc1nc(Nc2cc(F)cc(C(F)(F)F)c2)nn1-c1cc(C)nc(C)c1` [E251], the melting point stood at 286.2 °C. Further, the Emax in series [1] is 658%. In series [2], the EC50 is 263 nM.

In the case of `CCNC(=O)Cc1nc(Nc2cc(F)cc(C(F)(F)F)c2)nn1-c1cc(C)nc(C)c1` [E252], the melting point came to 284.5 °C. Moreover, the Emax in series [1] is 930%. In series [2], the EC50 was 195 nM.

In turn, `Cc1cc(-n2nc(Nc3cc(F)cc(C(F)(F)F)c3)nc2CC(=O)NC2CC2)cc(C)n1` [E253] registered a melting point of 286.3 °C. For the same compound, the Emax in series [1] stood at 950%. Moreover, the EC50 in series [2] was 91.2 nM.

Consider `Cc1cc(-n2nc(Nc3cc(F)cc(C(F)(F)F)c3)nc2CC(=O)NC2CCC2)cc(C)n1` [E254], for which the melting point was 291.8 °C. In addition, the Emax in series [1] turned out to be 662%. Moreover, the EC50 in series [2] was 75.9 nM.

In general, melting point refers to the temperature of the solid-liquid transition.
